Assay results: US20200360520A1, “USE OF RIFAMYCIN-QUINOLIZIDONE COUPLING MOLECULE” (priority 2019, published 2020)
≈ marks a conversion by molar mass, not a printed value. Where two headings read alike, the source gives them in different places.

Columns and labels:
Assay type in all cases: cell-based
Mycobacterium abscessus [1] = assay: MIC by micro broth dilution method (resazurin microtiter assay); details: Mycobacteroides abscessus, read-out: Minimum Inhibitory Concentration (MIC)
Mycobacterium avium [2] = assay: MBC test (plating on agar, CFU count); details: Mycobacterium avium, read-out: Minimum Bactericidal Concentration (MBC)
Mycobacterium abscessus [3] = assay: MBC test (plating on agar, CFU count); details: for Minimum Bactericidal Concentration (MBC): MH Culture Medium; for MBC: Mycobacteroides abscessus, 7H9 Culture Medium, read-out: Minimum Bactericidal Concentration (MBC)
Mycobacterium kansasii [4] = assay: MIC by micro broth dilution method (resazurin microtiter assay); details: Mycobacterium kansasii, Mycobacterium kansasii, read-out: Minimum Inhibitory Concentration (MIC)
Mycobacterium avium [5] = assay: as above; details: read-out: Minimum Inhibitory Concentration (MIC)
Mycobacterium kansasii [6] = assay: MBC test (plating on agar, CFU count); details: Mycobacterium kansasii, Mycobacterium kansasii, read-out: Minimum Bactericidal Concentration (MBC)
[7] = 7H9 Culture Medium, Mycobacterium avium Smooth
[8] = MH Culture Medium, Mycobacterium avium Smooth
[9] = 7H9 Broth, Mycobacterium avium Smooth
[10] = MH Broth, Mycobacterium avium Smooth

Structure (SMILES) | MIC (Mycobacterium abscessus [1]; 7H9 Broth) [µg/mL] | MIC (Mycobacterium abscessus [1]; MH Broth) [µg/mL] | MBC (Mycobacterium avium [2]; 7H9 Culture Medium, Mycobacterium avium Rough) [µg/mL] | MBC (Mycobacterium avium [2]; [7]) [µg/mL] | MBC (Mycobacterium avium [2]; MH Culture Medium, Mycobacterium avium Rough) [µg/mL] | MBC (Mycobacterium avium [2]; [8]) [µg/mL] | Minimum Bactericidal Concentration (MBC) (Mycobacterium abscessus [3]) [µg/mL] | MBC (Mycobacterium abscessus [3]) [µg/mL] | MIC (Mycobacterium kansasii [4]; 7H9 Broth) [µg/mL] | MIC (Mycobacterium kansasii [4]; MH Broth) [µg/mL] | MIC (Mycobacterium avium [5]; 7H9 Broth, Mycobacterium avium Rough) [µg/mL] | MIC (Mycobacterium avium [5]; [9]) [µg/mL] | MIC (Mycobacterium avium [5]; MH Broth, Mycobacterium avium Rough) [µg/mL] | MIC (Mycobacterium avium [5]; [10]) [µg/mL] | MBC (Mycobacterium kansasii [6]; 7H9 Culture Medium) [µg/mL] | MBC (Mycobacterium kansasii [6]; MH Culture Medium) [µg/mL]
NCC[C@H](O)C(=O)N[C@@H]1C[C@H](N)[C@@H](O[C@H]2O[C@H](CN)[C@@H](O)[C@H](O)[C@H]2O)[C@H](O)[C@H]1O[C@H]1O[C@H](CO)[C@@H](O)[C@H](N)[C@H]1O [Amikacin, amikacin] | 32 (≈ 54.6 µM) | 16 (≈ 27.3 µM) | > 64 | > 64 | > 64 | > 64 | >64 | > 64 | 16 (≈ 27.3 µM) | 1 (≈ 1.71 µM) | > 64 | 2 (≈ 3.42 µM) | 2 (≈ 3.42 µM) | 2 (≈ 3.42 µM) | 64 (≈ 109 µM) | > 64
O=C(O)c1cn(C2CC2)c2cc(N3CCNCC3)c(F)cc2c1=O [Ciprofloxacin, ciprofloxacin] | 16 (≈ 48.3 µM) | > 64 | – | > 64 | – | > 64 | >64 | > 64 | > 64 | > 64 | – | > 64 | – | > 64 | > 64 | > 64
